Reference: PubChem BioAssay AID1035470 (Broad Institute, 2014)
Records with an inconclusive call do not appear. Activity calls are given as the source filed them.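 Rule for the calls: active = compound lowering the normal-ribosome reporter at least twice as much as the humanized-ribosome reporter, growth loss under a set limit; inconclusive = no clear call, values can overlap the other calls; inactive = the rest.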

Tested on: E. coli WT-GFP vs G2058-humanized RFP, fluorescence, 24 h
Experiment: E. coli strain growth, wild-type against G2058 humanized RFP mutant – G2058 mutant RFP vs wild-type GFP, cherry-pick, two tests, dose response (AID 1035470)
[1] = E. coli WT-GFP vs G2058-humanized RFP mixed culture, total growth OD600, 24 h

SMILES	AC50 [1]	AC50	AC50 (measured here: G2058 humanized mutant RFP growth)
COc1ccc(C(=O)C[n+]2ccc3c(c2)nc(-c2cc(OC)c(OC)cc2OC)n3C)cc1	> 100 µM	–	–
CC(C)(C)C1CCC(C(=O)OCC(=O)N2CCN(C(=O)c3ccco3)CC2)CC1 (configuration not stated)	–	> 100 µM (inactive)	–
Cn1ccc2cc(-c3ccc4ncnc(NCc5cccs5)c4c3)ccc21	> 100 µM	–	–
CC(=O)OC(COc1cccc(C)c1)Cn1cnc2ccccc21 (configuration not stated)	> 100 µM	> 100 µM (inactive)	–
CSc1ccccc1OCc1cc(C(=O)N[C@H]2CCCCNC2=O)no1	> 100 µM	> 100 µM (inactive)	–
O=C(OCC1COc2ccccc2O1)c1ccccc1F (configuration not stated)	–	–	> 100 µM
CCOC(=O)c1c(NC(=O)CN2CCC(C)CC2)sc(C)c1C	–	> 100 µM (inactive)	–
CC(C)Nc1nnc(SCC(=O)Nc2sccc2C#N)s1	–	> 100 µM (inactive)	–
COc1ccccc1CNC(=O)CN1C(=O)NC(c2ccccc2)(c2ccccc2)C1=O	> 100 µM	> 100 µM (inactive)	–
